From ChEMBL document CHEMBL2384990, “New Promising Compounds with in Vitro Nanomolar Activity against Trypanosoma cruzi” (ACS Med Chem Lett, 2013) come the findings set out here.

Calls of active or inactive are those of the source. The calls are words filed in the database; no cut-off is given here.

As a reminder, the IC50 is the concentration that inhibits the measured activity by half.

The subject of data set [1] is Trypanosoma cruzi. Description: Antitrypanosomal activity against Trypanosoma cruzi Tulahuen C2C4 amastigotes infected in rat L6 cells after 96 hrs by photometric analysis. It is filed as functional, organism-based. The conditions noted are these: Tulahuen C2C4, L6, 96 h.
The test system of data set [2] is Trypanosoma cruzi. Description: Ratio of Benznidazole IC50 to compound IC50 for Trypanosoma cruzi Tulahuen C2C4 amastigotes infected in rat L6 cells. It is filed as functional.
The next data set has as its system L6. Description: Cytotoxicity against rat L6 cells after 72 hrs by Alamar blue assay. The conditions noted are these: L6, 72 h. It counts as cell-based.
A short description of data set [3]: Metabolic stability in human liver microsomes assessed as CYP-dependent metabolism after 60 mins by LC-UV-MS analysis. It counts as ADME, Microsome. The conditions noted are these: 1 h. A general note: Liver microsomes are a subcellular fraction often used to study metabolism.
A short description of data set [4]: Selectivity index, ratio of IC50 for rat L6 cells to IC50 for Trypanosoma cruzi Tulahuen C2C4 amastigotes infected in rat L6 cells. It counts as toxicity, cell-based. The conditions noted are these: read-out: Ratio IC50.
The next data set has as its system Leishmania donovani. Description: […] activity against Leishmania donovani MHOM-ET-67/L82 amastigotes after 72 hrs by Alamar blue assay. It counts as functional, organism-based. The conditions noted are these: MHOM-ET-67/L82, 72 h.
Data set [5] has as its system Trypanosoma brucei rhodesiense. Description: Antitrypanosomal activity against Trypanosoma brucei rhodesiense STIB 900 trypomastigotes after 72 hrs by Alamar blue assay. It counts as functional, organism-based. The conditions noted are these: STIB 900, 72 h.
The subject of the next data set is Plasmodium falciparum. Description: Antiplasmodial activity against erythrocytic stage of Plasmodium falciparum K1 after 48 hrs by [3H]-hypoxanthine incorporation assay. It is filed as functional, organism-based.
The target in data set [6] is Sterol 14-alpha demethylase (Trypanosoma cruzi (strain CL Brener)) (UniProt Q7Z1V1). Description: Inhibition of Trypanosoma cruzi CYP51.
Chain of Sterol 14-alpha demethylase (Trypanosoma cruzi (strain CL Brener)) (Q7Z1V1 whole entry, looked up): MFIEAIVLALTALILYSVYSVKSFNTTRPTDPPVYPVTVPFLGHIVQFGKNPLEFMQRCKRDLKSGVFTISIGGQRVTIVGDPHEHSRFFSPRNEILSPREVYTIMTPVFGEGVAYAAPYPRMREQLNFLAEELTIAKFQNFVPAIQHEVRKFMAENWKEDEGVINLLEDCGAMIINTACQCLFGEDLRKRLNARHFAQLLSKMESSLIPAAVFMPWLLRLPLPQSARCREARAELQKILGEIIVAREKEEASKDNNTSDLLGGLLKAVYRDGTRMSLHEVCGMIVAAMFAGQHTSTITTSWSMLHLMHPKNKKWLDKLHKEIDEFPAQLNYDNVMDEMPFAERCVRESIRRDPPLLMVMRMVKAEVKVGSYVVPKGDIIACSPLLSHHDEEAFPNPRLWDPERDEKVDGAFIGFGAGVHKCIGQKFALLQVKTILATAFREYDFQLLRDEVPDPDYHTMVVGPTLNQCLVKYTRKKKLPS

As for `O=C(O[C@H](Cn1ccnc1)c1ccccc1)c1ccc(-c2ccccc2)cc1`, the values for the IC50 in the data set with Trypanosoma cruzi [1] and with L6 were 3.8 nM and 18.2 µM, respectively. For the same compound, in the data set with Trypanosoma cruzi [2], the “Ratio IC50” value is on record as “<=1000”. In addition, the Stability entry in [3] is recorded as “Unstable”. The selectivity ratio in [4] was 4800.
With `CCCCCCCCCCCCCCCCOP(=O)([O-])OCC[N+](C)(C)C` [MILTEFOSINE], the concentration for half-maximal inhibition (IC50) in the data set with Leishmania donovani was 0.366 µM.
Take `O=C(COc1ccccc1)OC(Cn1ccnc1)c1ccc(F)cc1` (racemic): the half-inhibitory concentration (IC50) was 24400 nM in the data set with Trypanosoma cruzi [1]; 294 µM in data set [5]; 36.7 µM in the data set on Plasmodium falciparum; 182 µM with L6; 17.3 µM with Leishmania donovani. Also, in data set [4], the selectivity ratio was 7.5.
As to `Cc1ncc([N+](=O)[O-])n1CCOC(=O)Nc1ccncc1Br`, the concentration for half-maximal inhibition (IC50) in the data set with Trypanosoma cruzi [1] is 48400 nM; in data set [5] it was 139 µM; in the data set on Plasmodium falciparum it was 60.2 µM; in the data set with L6, 222 µM; in the data set on Leishmania donovani it was 85.1 µM. Also, in data set [6], the inhibition entry was “inactive”. Also, the selectivity ratio in data set [4] was 4.6.
Consider `O=C(Nc1cc(Cl)nc(Cl)c1)O[C@H](Cn1ccnc1)c1ccc(Cl)cc1`, for which the results for the IC50 with Trypanosoma cruzi [1] and in the data set on L6 were 23.6 nM and 31.6 µM, respectively. In the data set with Trypanosoma cruzi [2], the “Ratio IC50” value is recorded as “<=1000”. The selectivity ratio in data set [4] stood at 1340.
In the case of `CC(C)c1ccc(NC(=O)O[C@H](Cn2ccnc2)c2ccc(Cl)cc2)cc1`, the results for the IC50 with Trypanosoma cruzi [1] and in the data set with L6 were 1.8 nM and 13.4 µM, respectively. Further, in the data set with Trypanosoma cruzi [2], the “Ratio IC50” value is “<=1000”. For the same compound, the Stability result in [3] is “Unstable”. Further, the selectivity ratio in [4] was 7470.
With `O=C(Cn1ccnc1[N+](=O)[O-])NCc1ccccc1` [BENZNIDAZOLE], in the data set with Trypanosoma cruzi [1], the IC50 stood at 1670 nM.
With `O=C(Nc1cc(Cl)nc(Cl)c1)O[C@@H](Cn1ccnc1)c1ccc(Cl)cc1`, the figures for the IC50 in the data set on Trypanosoma cruzi [1] and with L6 were 97.2 nM and 15.4 µM, respectively. For the same compound, the selectivity ratio in [4] was 158.
For the compound `O=C(Nc1cc(Cl)nc(Cl)c1)OCCN1CCOCC1`, the IC50 in the data set with Trypanosoma cruzi [1] was found to be 133000 nM; in data set [5], 117 µM; in the data set with Plasmodium falciparum, 23.1 µM; in the data set on L6, 79.3 µM; in the data set with Leishmania donovani it was 123 µM. For the same compound, the inhibition entry in data set [6] is “inactive”. For the same compound, the selectivity ratio in [4] came out at 0.6.
Regarding `O=C(Nc1cc(Cl)nc(Cl)c1)OC(Cn1ccnc1)c1ccc(Cl)cc1` (racemic), the IC50 turned out to be 36 nM in the data set on Trypanosoma cruzi [1]; 34 µM in data set [5]; 1.5 µM in the data set on Plasmodium falciparum; 27.2 µM in the data set with L6; 11.4 µM in the data set with Leishmania donovani. For the same compound, in data set [4], the selectivity ratio is 749.
For the compound `CC(C)c1ccc(NC(=O)O[C@@H](Cn2ccnc2)c2ccc(Cl)cc2)cc1`, the IC50 in the data set on Trypanosoma cruzi [1] was determined as 112 nM; in the data set on L6 it was 14 µM. In addition, in data set [4], the selectivity ratio is 125.
In the case of `CC(C)c1ccc(NC(=O)OC(Cn2ccnc2)c2ccc(Cl)cc2)cc1` (racemic), the IC50 in the data set with Trypanosoma cruzi [1] is 5 nM; in [5], 18.2 µM; in the data set on Plasmodium falciparum it was 1.8 µM; with L6, 13 µM; in the data set with Leishmania donovani it was 7 µM. Moreover, in data set [4], the selectivity ratio worked out at 2490.
As for `O=C(OC(Cn1ccnc1)c1ccccc1)c1ccc(-c2ccccc2)cc1` (racemic), the IC50 in the data set with Trypanosoma cruzi [1] stood at 14 nM; in [5], 42.1 µM; in the data set with Plasmodium falciparum, 2.2 µM; in the data set on L6, 23.6 µM; in the data set with Leishmania donovani it was 5.4 µM. Further, in [4], the selectivity ratio was 1580.
As to `O=C(Nc1ccnc(Cl)c1)OCCN1CCOCC1`, the IC50 with Trypanosoma cruzi [1] is 175000 nM; in data set [5], 230 µM; with Plasmodium falciparum it was 79.8 µM; in the data set with L6, 238 µM; in the data set with Leishmania donovani, 190 µM. In data set [6], the inhibition result is “inactive”. For the same compound, the selectivity ratio in data set [4] was found to be 1.3.
For `O=C(O[C@@H](Cn1ccnc1)c1ccccc1)c1ccc(-c2ccccc2)cc1`, the IC50 with Trypanosoma cruzi [1] came to 193 nM; with L6, 27.5 µM. The selectivity ratio in data set [4] came out at 143.
In the data set with L6, `COc1cc([C@@H]2c3cc4c(cc3[C@H](O)[C@H]3COC(=O)[C@H]23)OCO4)cc(OC)c1OC` [PODOFILOX] registered a concentration for half-maximal inhibition (IC50) of 0.001 µM.
For the compound `CC(C)c1ccc(NC(=O)OC(Cn2ccnc2)c2ccc(F)cc2)cc1` (racemic), the 50% inhibitory concentration (IC50) was 5 nM in the data set on Trypanosoma cruzi [1]; 19.1 µM in data set [5]; 4.6 µM in the data set on Plasmodium falciparum; 16.8 µM with L6; 15 µM with Leishmania donovani. In addition, the selectivity ratio in [4] came to 3360.
